Results taken from patent US9872514B2, “Compounds, compositions, and methods for reducing or eliminating bitter taste” (Chromocell Corporation, priority 2010, dated 2018).
Read-outs that look alike come from different tables or passages of the source.

Tests used:
Type in all cases: in vivo, humans
[1] = system: bitter taste of an aqueous solution of KCl; test: Sip and spit bitterness rating of aqueous KCl test solutions; conditions: Homo sapiens, aqueous KCl 4.85 g/L, 1% EtOH, bitterness scored 0-15 vs KCl standard, dash = none of the tested conc.
Procedure: An amount of this stock compound solution is then added to an aqueous KCl solution. Enough EtOH is then added to the resulting stock compound/KCl solution so that the final KCl test solution contains 1% EtOH. KCl solution standards were similarly prepared by dissolving various amounts of KCl in water and ethanol without adding any test compound.
The effect of the test compounds an the perception of the bitter taste of an aqueous solution of KCl in humans was evaluated using a “sip and spit” test as follows.
(§1) A set of KCl solution standards was developed and each standard solution was assigned a bitterness taste score of 0-15 (corresponding to aqueous KCl concentrations of 0 mM-120 mM). Panelists were trained to recognize these standards. In addition, before each day of testing, panelists were tested to see if they could determine differences in taste between the standard solutions. If a panelist was unable to recognize a change in KCl concentration, they were excluded from the panel for that day.
(§2) In a blind taste test, panelists were asked to compare the bitter taste of a small quantity (e.g., 8 ml) of each of the KCl Test Solutions to the taste of a KCl solution standard, without swallowing (see, e.g., Table 1). Specifically, panelists were asked to rate the bitterness of each KCl Test Solution on a scale of 0-15 using the same scale developed for the KCl solution standards. Each sample was tested in 2-4 discrete taste test experiments. Panelists were asked to rinse with water, eat a cracker, and wait approximately 10 minutes between samples.

[2] = system: bitter taste of an aqueous solution of potassium lactate; test: Sip and spit bitterness rating of aqueous potassium lactate test solutions; conditions: Homo sapiens, aqueous potassium lactate 41 g/L, 1% EtOH, dash = none of the tested conc.
Procedure: as §1, §2
Edible potassium lactate solution compositions (“potassium lactate test solutions”) were prepared by first dissolving varying amounts of the test compounds in an amount of ethanol or water (depending on the solubility of the compound) to create a 5 mg/mL stock compound solution. An amount of this stock compound solution is then added to an aqueous potassium lactate solution. Enough EtOH is then added to the resulting stock compound/potassium lactate solution so that the final potassium lactate test solution contains 1% EtOH. Potassium lactate solution standards were similarly prepared by dissolving various amounts of potassium lactate in water and ethanol without adding any test compound.
The effect of the test compounds on the perception of the bitter taste of an aqueous solution of potassium lactate in humans was evaluated using the “sip and spit” test described in Example 2.

[3] = system: bitter taste of an aqueous solution of KCl; test: Latin Square-2AFC sip and spit test of aqueous KCl solutions; conditions: Homo sapiens, aqueous KCl 4.85 g/L, Latin Square-2AFC vs KCl standard, dash = none of the tested conc.
Procedure: The effect of the test compounds on the perception of the bitter taste of an aqueous solution of KCl in humans was evaluated using a “sip and spit” test using a Latin Square-2AFC testing method as follows.
In a blind taste test, panelists were asked to compare the bitter taste of a small quantity (e.g., 8 ml) of a KCl Test Solution to the taste of a KCl solution standard (prepared as described in Example 1), without swallowing. NaCl solution standards were prepared as described in Example 1.
In order to eliminate any effects of sample order, a complete Latin Square design was employed so that each possible order of sample presentation was utilized across subjects. Each sample was tested in several discrete taste test experiments. Panelists were asked to rinse with water, eat a cracker, and wait about 10 minutes between samples. In each case, the panelists were asked to choose the sample which tasted “less bitter.” Illustrative results of the aqueous solution Latin Square-2AFC testing are presented in Table 5.

[4] = system: bitter taste of KCl foodstuff slurries; test: Latin Square-2AFC sip and spit test of KCl turkey slurry; conditions: 1.6% KCl, dash = none of the tested conc.
Procedure: The effect of the test compounds on the perception of the bitter taste of KCl foodstuff slurries in humans was evaluated using a “sip and spit” test using a Latin Square-2AFC testing method as follows.
In a blind taste test, panelists received two portions of turkey slurry—one portion being the KCl foodstuff slurry standard and the other being one of the KCl test foodstuff slurries (prepared as described in Example 5). NaCl foodstuff slurry standards were prepared as described in Example 1.
(§3) The panelists tasted each of the portions by sipping and spitting. In order to eliminate any effects of sample order, a complete Latin Square design was employed so that each possible order of sample presentation was utilized across subjects. Each sample was tested in several discrete taste test experiments. Panelists were asked to rinse with water, eat a cracker, and wait about 10 minutes between samples. In each case, the panelists were asked to choose the sample that tasted less bitter.

[5] = system: bitter taste of KCl in solid-matrix foodstuffs; test: Latin Square-2AFC chew and spit test of KCl solid turkey; conditions: Homo sapiens, 1.6% KCl (80% KCl:20% NaCl marinade), dash = none of the tested conc.
Procedure: The effect of the test compounds on the perception of the bitter taste of KCl in solid-matrix foodstuffs in humans was evaluated using a “chew and spit” test using a Latin Square-2AFC testing method as follows.
Two types of marinades containing Prague powder, sugar, Evian™ water, KCl and/or NaCl in water were prepared. One marinade contained 80% KCl, 20% NaCl (by weight) (i.e., marinade concentration of […]). A second marinade contained 60% KCl:40% NaCl (by weight) (i.e., marinade concentration of 1.2% KCl). Compound stock solutions were prepared by dissolving an amount of test compound in ethanol or water (depending on the solubility of the compound) to create a 5 mg/mL stock compound solution. Enough ethanol was added to each stock compound solution to generate a final stock compound solution containing 1% ethanol. The marinade, the stock compound solution and ground turkey were added to a mixing bowl, mixed at low-speed for about 2 minutes, and then mixed at high-speed for about 5 minutes. The marinated turkey mixture was divided into one pound aliquots, vacuum sealed into food saver bags, and allowed to marinate for about 2 hours in a refrigerator. The vacuum-sealed turkey was then cooked in an about 86° C. water bath for about 30 minutes. If after about 30 minutes, the internal turkey temperature had not reached about 170° F., the vacuum-sealed turkey was cooked for about an additional 5 minutes. The vacuum-sealed turkey was then refrigerated for about two weeks before taste testing. KCl standards were similarly prepared by dissolving KCl in the marinade without adding any test compound during the turkey preparation.
as §3, with “tasted” for “tasted each of the”, “by chewing” for “by sipping”, “Each simple” for “Each sample”, “water, cat” for “water, eat”

[6] = system: bitter taste of KCl foodstuff slurries; test: Two-alternative forced choice (2AFC) sip and spit test of KCl turkey foodstuff slurries; conditions: Homo sapiens, turkey slurry, 1.6% KCl, 2AFC vs KCl slurry standard, dash = none of the tested conc.
Procedure: Edible KCl food compositions (“KCl test foodstuff slurries”) were prepared as follows. Dehydrated, salt-free turkey powder was weighed and mixed with various amounts of KCl and/or NaCl and then solubilized with boiling water to create a homogenized solubilized turkey slurry. Varying amounts of the test compounds were dissolved in an amount of ethanol or water (depending on the solubility of the compound) to create a 5 mg/mL stock compound solution. An amount of this stock compound solution was then added to the turkey slurry. Enough EtOH is then added to the resulting stock compound/turkey slurry so that the slurry contains 1% EtOH. The slurry was again homogenized by boiling and mixing and allowed to cool to yield the final KCl test foodstuff slurry for taste testing KCl foodstuff slurry standards were similarly prepared without any test compound.
The effect of the test compounds on the perception of the bitter taste of KCl foodstuff slurries in humans was evaluated using a two-alternative-forced-choice “sip and spit” test as follows.
(§4) In a blind taste test, panelists received two portions of turkey slurry—one portion being the KCl foodstuff slurry standard and the other being one of the KCl test foodstuff slurries (each prepared as described in Example 5). The panelists tasted each of the portions by sipping and spitting. Each sample was tested in 2-4 discrete taste test experiments. Panelists were asked to rinse with water, eat a cracker, and wait about 10 minutes between samples. In each case, the panelists were asked to compare the bitter taste of the two turkey samples to each other (i.e., panelists were asked to indicate which sample was less bitter).

[7] = system: bitter taste of potassium lactate foodstuffs; test: 2AFC sip and spit test of potassium lactate turkey foodstuff slurries; conditions: turkey slurry, 4.5% potassium lactate, 2AFC vs standard; dash = none of the tested conc.
Procedure: as §4
Edible potassium lactate food compositions (“potassium lactate test foodstuff slurries”) were prepared as follows. Dehydrated, salt-free turkey powder was weighed and mixed with various amounts of potassium lactate and/or sodium lactate and then solubilized with boiling water to create a homogenized solubilized turkey slurry. Varying amounts of the test compounds were dissolved in an amount of ethanol or water depending on the solubility of the compound) to create a 5 mg/mL stock compound solution. An amount of this stock compound solution was then added to the turkey slurry. Enough EtOH is then added to the resulting stock compound/turkey slurry so that the final slurry contains 1% EtOH. The final slurry was again homogenized by boiling and mixing and allowed to cool to yield the final slurry for taste testing. Potassium lactate foodstuff slurry standards were similarly prepared without any test compound.
The effect of the test compounds on the perception of the bitter taste of potassium lactate foodstuffs in humans was evaluated using the two-alternative-forced-choice “sip and spit” test described in Example 6.

[8] = read-out: Conc. Where Decrease in Bitter Taste Discerned and p ≦ 0.1
[9] = read-out: Conc. Where Decrease in Bitter Taste Was Discerned
[10] = read-out: Conc. at Which At Least 50% of Panelist Discerned Decrease in Bitter Taste
[11] = read-out: Conc. at Which At Least 50% of Panelist Discerned Decrease in Bitter Taste and p ≦ 0.1

Structure (SMILES)	minimal effective concentration [1, 8] [µg/mL]	minimal effective concentration [2, 9] [µg/mL]	minimal effective concentration [2, 8] [µg/mL]	minimal effective concentration [5, 11] [µg/mL]	further results
C/C=C/C(=O)C1C(C)=CCCC1(C)C (stereo not shown) [Compound 2]	10	1	–	–	minimal effective concentration [3, 10]: 2 µg/mL; Conc. at Which At Least 50% of Panelist Discerned Decrease in Bitter Taste [4]: 25 ppm; minimal effective concentration [5, 10]: 10 µg/mL
CCC(=O)OCCC(C)CCC=C(C)C (stereo not shown) [Compound 10]	1	0.1	–	–	minimal effective concentration [6, 10]: 0.1 µg/mL; minimal effective concentration [5, 10]: 0.5 µg/mL
CC(C)=CCCC(C)CCOC(=O)C(C)C (stereo not shown) [Compound 11]	10	–	–	–	minimal effective concentration [3, 10]: 1 µg/mL
CCC(=O)OC/C=C(\C)CCC=C(C)C [Compound 22]	1	–	1	–	minimal effective concentration [3, 11]: 0.25 µg/mL
CC(C)=CCC/C(C)=C/COC(=O)Cc1ccccc1 [Compound 26]	1	10	10	–	Conc. at Which At Least 50% of Panelist Discerned Decrease in Bitter Taste [4]: 0.6 ppm
CC(C)=CCC/C(C)=C\CO [Compound 31]	10	–	10	4	minimal effective concentration [6, 10]: 10 µg/mL
CC(C)=CCC/C(C)=C\COC(=O)C(C)C [Compound 34]	–	–	1	–	minimal effective concentration [5, 10]: 2 µg/mL
CC(=O)OC/C=C(\C)CCC[C@H](C)CCC[C@H](C)CCCC(C)C [Compound 41]	10	5	–	2.5	minimal effective concentration [1, 9]: 10 µg/mL; minimal effective concentration [3, 11]: 1 µg/mL
O=C1CCc2ccccc2O1 [Compound 53]	10	10	10	–	Conc. at Which At Least 50% of Panelist Discerned Decrease in Bitter Taste [7]: 5 ppm; minimal effective concentration [3, 10]: 1 µg/mL
OCc1ccc(O)cc1 [Compound 69]	1	–	–	1	minimal effective concentration [6, 11]: 10 µg/mL
CC12CCC(CC1=O)C2(C)C (stereo not shown) [Compound 74]	–	1	1	10	minimal effective concentration [6, 10]: 10 µg/mL; Conc. at Which At Least 50% of Panelist Discerned Decrease in Bitter Taste [7]: 1 ppm; minimal effective concentration [3, 11]: 1 µg/mL
CCC1(O)C2(C)CCC(C2)C1(C)C (stereo not shown) [Compound 85]	1	5	5	1	minimal effective concentration [3, 10]: 0.005 µg/mL
COc1ccc2c(=O)cc(-c3ccccc3)oc2c1 [Compound 95]	–	–	1	–	Conc. at Which At Least 50% of Panelist Discerned Decrease in Bitter Taste and p ≦ 0.1 [7]: 10 ppm
C[C@H]1CC[C@@H](C(C)(C)O)CC2=C1CC[C@@H]2C [Compound 120]	–	–	–	–	minimal effective concentration [6, 10]: 10 µg/mL; Conc. at Which At Least 50% of Panelist Discerned Decrease in Bitter Taste [7]: 10 ppm
